According to patent US20090143236A1, “Method of detecting cancer cell acquiring drug-resistance” (BML, INC., priority 2004, published 2009):

Test system: SKOV3 cells and SKOV3/VP cells
Assay: Caspase activity (colorimetric CaspACE assay) of ovarian cancer cells treated with VP-16
Assay type: cell-based, Human
Conditions: 100 μg/ml VP-16, 24 hours; FIG. 4A
Description: Caspase activity was measured using a calorimetric CaspACE assay system (Promega Co., Madison, Wis., U.S.A.) in accordance with the instructions included therewith. SKOV3 cells and SKOV3/VP cells were cultured for 24 hours in the presence of 100 μg/ml VP-16, or VP-16 and the caspase inhibitor Z-VAD-FMK, or in the presence of only a medium (control). The cells were dissolved in a lysis buffer, and the resultant was then subjected to centrifugation at 4° C. at 15,000×g for 20 minutes. The supernatant (containing 100 μg of protein) was incubated with a substrate (Ac-DEVD-pNA) used for the measurement of caspase activity at 37° C. for 4 hours. Thereafter, the absorbance at 405 nm was measured, so as to obtain the activity.
The influence of BCL2L2 gene expression on apoptosis induced by anticancer drugs was analyzed. Human ovarian cancer SKOV3 cells and etoposide-resistant ovarian cancer SKOV3/VP cells were cultured for 24 hours in the presence of 100 μg/ml VP-16, so as to measure apoptosis associated with activation of caspase-3. […] Thereafter, in order to analyze the role of the BCL2L2 gene, the cells were treated with the antisense oligonucleotide of BCL2L2, and the influence of VP-16 was analyzed under conditions wherein expression of the BCL2L2 gene was suppressed. […]

## COc1cc([C@@H]2c3cc4c(cc3[C@@H](O[C@@H]3O[C@@H]5CO[C@@H](C)O[C@H]5[C@H](O)[C@H]3O)[C@H]3COC(=O)[C@H]23)OCO4)cc(OC)c1O [VP-16, etoposide]
  caspase activity in etoposide-resistant SKOV3/VP cells compared with parent line SKOV3: decreased to approximately one-half
